One assay concerns NCI-H460. As to the kind of experiment: Antiproliferative activity against human NCI-H460 cells assessed as cell growth inhibition by MTT assay. Type of assay: functional.
The test system of the next assay is PC-3. As to the kind of experiment: Antiproliferative activity against human PC-3 cells assessed as cell growth inhibition by MTT assay. Format: functional.

Molecules are shown by their SMILES.

Turning to `CC(C)=CCC/C(C)=C/CC/C(C)=C/CN1C(=O)c2ccccc2Nc2cnc(Cl)nc21`, the results for the GI50 with NCI-H460 and in the assay on PC-3 were 19.9 µM and 5.94 µM, respectively. With `COc1cc(CN2C(=O)c3ccccc3Nc3cnc(Cl)nc32)cc(OC)c1OC`, the GI50 in the assay with PC-3 is 8.23 µM. Take `COc1ccc2c(c1)N(C/C=C(\C)CCC=C(C)C)C(=O)c1ccccc1N2`: the GI50 in the assay on NCI-H460 came out at 43.9 µM; in the assay on PC-3, 10.8 µM.

In the case of `COc1ccc2c(c1)N(Cc1cc(OC)c(OC)c(OC)c1)C(=O)c1ccccc1N2`, the GI50 in the assay on NCI-H460 was determined as 34.8 µM; with PC-3, 10.2 µM.

Turning to `COc1ccc2c(c1)N(C/C=C/c1ccccc1)C(=O)c1ccccc1N2`, the GI50 was determined as 36.6 µM in the assay with NCI-H460 and 7.37 µM in the assay on PC-3.

Regarding `COc1ccc2c(c1)N(Cc1ccc(OC)c(OC)c1)C(=O)c1ccccc1N2`, the GI50 in the assay with NCI-H460 came to 44.4 µM; in the assay with PC-3 it was 12.5 µM. As to `COc1ccc2c(c1)N(C/C=C(\C)CC/C=C(\C)CCC=C(C)C)C(=O)c1ccccc1N2`, the figures for the GI50 with NCI-H460 and in the assay with PC-3 were 34.4 µM and 11 µM, respectively. Take `COc1ccc(CN2C(=O)c3ccccc3Nc3ccc(OC)cc32)cc1`: the concentration for 50% growth inhibition (GI50) in the assay with PC-3 came out at 10.6 µM. With `CC(C)=CCC/C(C)=C/CN1C(=O)c2ccccc2Nc2cnc(Cl)nc21`, the figures for the concentration for 50% growth inhibition (GI50) with NCI-H460 and in the assay with PC-3 were 24.3 µM and 7.29 µM, respectively.

With `COc1ccc(CN2C(=O)c3ccccc3Nc3cnc(Cl)nc32)cc1`, in the assay with PC-3, the GI50 amounted to 6.69 µM.

As for `O=C1c2ccccc2Nc2cnc(Cl)nc2N1C/C=C/c1ccccc1`, the GI50 in the assay with PC-3 came to 12.5 µM. Regarding `COc1ccc(CN2C(=O)c3ccccc3Nc3cnc(Cl)nc32)cc1OC`, in the assay on PC-3, the GI50 was determined as 8.31 µM.

For the compound `COc1ccc2c(c1)N(CC=C(C)C)C(=O)c1ccccc1N2`, the GI50 in the assay on NCI-H460 turned out to be 25.6 µM; in the assay with PC-3, 5.66 µM. Turning to `CC(C)=CCN1C(=O)c2ccccc2Nc2cnc(Cl)nc21`, the figures for the GI50 in the assay on NCI-H460 and in the assay with PC-3 were 38.1 µM and 6.12 µM, respectively. In the case of `CC(C)=CCC/C(C)=C/CC/C(C)=C/CN1C(=O)c2cccc(O)c2Nc2c(O)cc(O)cc21` [DIAZEPINOMICIN], the results for the GI50 with NCI-H460 and in the assay with PC-3 were 13.6 µM and 1.95 µM, respectively.

One may read the GI50 as the concentration giving 50% growth inhibition.

Values taken from ChEMBL document CHEMBL5143534, “Synthesis and biological evaluation of BU-4664L derivatives as potential anticancer agents” (2022).
